This is an account of results in ChEMBL document CHEMBL5352486, “Design, synthesis, in vitro - In vivo biological evaluation of novel thiazolopyrimidine compounds as antileishmanial agent with PTR1 inhibition” (Eur J Med Chem, 2023).

Data set [1] concerns Leishmania infantum. Briefly: Antileishmanial activity against Leishmania infantum infected in BALB/c mouse model of visceral leishmaniasis assessed as footpad lesion development at 50 mg/kg/day, IM administered for 21 days and measured after 9 weeks by Giemsa staining based analysis (reference value: 22.75 +/- 0.71). Format: functional. The settings on record: time 21 day.

Data set [2] concerns Leishmania infantum. Briefly: Antileishmanial activity against Leishmania infantum infected in BALB/c mouse model of cutaneous leishmaniasis assessed as footpad lesion development at 50 mg/kg/day, ID administered for 21 days and measured after 18 weeks by Giemsa staining based analysis (reference value: 4.42 +/- 0.03). It is filed as functional. The settings on record: time 21 day.

Data set [3] has as its system Leishmania infantum. Briefly: Antileishmanial activity against Leishmania infantum MHOM/TN/1980/IPT1 incubated for 48 hrs by Neubauer hemocytometer analysis. Format: functional, organism-based. The conditions noted are these: MHOM/TN/1980/IPT1, 48 h.
Data set [4] concerns Leishmania infantum. Put plainly: Antileishmanial activity against Leishmania infantum infected in BALB/c mouse model of cutaneous leishmaniasis assessed as parasite growth in spleen at 50 mg/kg/day, ID administered for 21 days. It is filed as functional, organism-based. The conditions noted are these: time 21.0 day.
For data set [5], the target named is T1, Pteridine reductase 1 (Leishmania major, UniProt Q01782).
T1 sequence (Q01782 whole entry): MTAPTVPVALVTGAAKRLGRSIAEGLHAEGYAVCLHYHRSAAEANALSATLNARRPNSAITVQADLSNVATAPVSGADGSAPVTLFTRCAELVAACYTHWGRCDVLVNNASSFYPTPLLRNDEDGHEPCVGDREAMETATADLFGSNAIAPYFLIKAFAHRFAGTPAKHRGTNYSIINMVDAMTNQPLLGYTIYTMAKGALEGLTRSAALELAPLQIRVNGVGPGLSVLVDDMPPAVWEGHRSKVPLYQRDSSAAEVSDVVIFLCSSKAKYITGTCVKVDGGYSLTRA
Put plainly: Inhibition of recombinant Leishmania major PTR1 expressed in Escherichia coli BL21 using folic acid as substrate in presence of NADPH.

Data set [6] concerns Leishmania infantum. Put plainly: Antileishmanial activity against Leishmania infantum infected in BALB/c mouse model of cutaneous leishmaniasis assessed as footpad lesion development at 50 mg/kg/day, ID administered for 21 days and measured after 14 weeks by Giemsa staining based analysis (reference value: 3.88 +/- 0.03). It is filed as functional. The settings on record: time 21 day.

For data set [7], the system named is Leishmania infantum. Briefly: Antileishmanial activity against Leishmania infantum infected in BALB/c mouse model of visceral leishmaniasis assessed as footpad lesion development at 50 mg/kg/day, IM administered for 21 days and measured after 6 weeks by Giemsa staining based analysis (reference value: 25.81 +/- 0.84). Format: functional. The conditions noted are these: time 21 day.

For data set [8], the system named is Leishmania infantum. Briefly: Antileishmanial activity against Leishmania infantum infected in BALB/c mouse model of cutaneous leishmaniasis assessed as footpad lesion development at 50 mg/kg/day, ID administered for 21 days and measured after 12 weeks by Giemsa staining based analysis (reference value: 3.61 +/- 0.03). It is filed as functional. The settings on record: time 21 day.

The test system of data set [9] is Leishmania tropica. Put plainly: Antileishmanial activity against Leishmania tropica MHOM/A7/1974/SAF-K27 incubated for 48 hrs by XTT method. The settings on record: MHOM/A7/1974/SAF-K27, 48 h. Format: functional, organism-based. (In general: Tetrazolium dyes change colour on reduction, which living cells bring about.)
For data set [10], the system named is Leishmania infantum. Put plainly: Antileishmanial activity against Leishmania infantum infected in BALB/c mouse model of visceral leishmaniasis assessed as footpad lesion development at 50 mg/kg/day, IM administered for 21 days and measured after 3 weeks by Giemsa staining based analysis (reference value: 28.94 +/- 0.59). It is filed as functional. The conditions noted are these: time 21 day.

Data set [11] relates to DHFR (human) versus PTR1 (Leishmania major). Briefly: Selectivity index, ratio of IC50 for human DHFR to IC50 for Leishmania major PTR1. It is filed as toxicity. The conditions noted are these: human DHFR enzyme and Leishmania major PTR1 enzyme, read-out: Ratio IC50.
For data set [12], the system named is Leishmania infantum. Put plainly: Antileishmanial activity against Leishmania infantum infected in BALB/c mouse model of cutaneous leishmaniasis assessed as footpad lesion development at 50 mg/kg/day, ID administered for 21 days and measured after 26 weeks by Giemsa staining based analysis (reference value: 4.91 +/- 0.01). Format: functional. The settings on record: time 21 day.

Data set [13] deals with Leishmania infantum. Briefly: Antileishmanial activity against Leishmania infantum infected in BALB/c mouse model of visceral leishmaniasis assessed as footpad lesion development at 50 mg/kg/day, IM administered for 21 days and measured after 10 weeks by Giemsa staining based analysis (reference value: 21.58 +/- 0.74). It is filed as functional. The conditions noted are these: time 21 day.

Data set [14] relates to Leishmania tropica. Briefly: Potency index, ratio of glucantime IC50 to test compound IC50 for antileishmanial activity against Leishmania tropica MHOM/A7/1974/SAF-K27. It is filed as functional.

Structures are written as SMILES. In brackets after ≈: the same amount, converted by molar mass. Activity calls are given as the source filed them. The rule behind the calls is not given here.

Regarding `CN(C)c1ncc2nc(NC(=O)c3ccc(Cl)c([N+](=O)[O-])c3)sc2n1`, the Activity in data set [1] stood at 28.13; in data set [2], 4.41; in data set [6] it was 3.83; in [7], 26.28; in data set [8] it was 3.61; in [10], 28.71. In addition, the results for the Activity in [12] and in [13] were 4.7 and 29.09, respectively. Besides, the concentration for half-maximal inhibition (IC50) (as a rule, the concentration that inhibits the measured activity by half) in data set [3] was 7.06 µg/mL (≈ 18.6 µM); in data set [5], 680 µM; in data set [9], 6.68 µg/mL (≈ 17.6 µM). Besides, the outcome in data set [4] was Active. Further, the selectivity ratio in [11] stood at 7.02.

Take `CCOC(=O)N1CCN(c2ncc3nc(NC(=O)c4ccc(Cl)c(Cl)c4)sc3n2)CC1`: the Activity in data set [1] was found to be 27.35; in data set [2], 4.4; in data set [6], 3.81; in data set [7] it was 25.71; in [8] it was 3.61; in data set [10] it was 28.71. For the same compound, the Activity was 4.73 in data set [12] and 27.91 in data set [13]. The IC50 in data set [3] was 0.041 µg/mL (≈ 0.0852 µM); in [5], 123 µM; in data set [9], 0.04 µg/mL (≈ 0.0831 µM). In data set [4], the outcome was Active. Also, the selectivity ratio in data set [11] stood at 42.6. In addition, in data set [14], the “Ratio IC50” value is 200.

On to `CN1CCN(c2ncc3nc(NC(=O)c4ccc(Cl)c(Cl)c4)sc3n2)CC1`, for which the Activity in [1] is reported as 22.18; in data set [2], 4.4; in data set [6] it was 3.89; in data set [7], 25.72; in data set [8] it was 3.61; in data set [10] it was 28.73. The Activity was 4.87 in [12] and 21.12 in data set [13]. In addition, the half-inhibitory concentration (IC50) in data set [3] was 8.16 µg/mL (≈ 19.3 µM); in [5], 21.3 µM; in data set [9] it was 7.81 µg/mL (≈ 18.4 µM). Also, in [4], the outcome was Active. The selectivity ratio in data set [11] worked out at 312.
